Target: T1, recombinant autotaxin (Homo sapiens, UniProt Q13822)
T1 construct: made in house; host or cells: Hi5 insect cells (baculovirus)
Experiment: Autotaxin assay (Amplex Red fluorescence, LPC substrate)
Type: biochemical
Settings: percent of uninhibited control (100%) at 1E−05 M compound
Procedure: Autotaxin activity is measured indirectly by means of Amplex Red Reagent. In this course, Amplex Red is measured as fluorogenic indicator for generated H2O2. Autotaxin converts substrate lysophosphatidylcholine (LPC) to phosphocholine and lysophosphatidylic acid (LPA). After the conversion phosphocholine is reacted with alkaline phosphatase to obtain inorganic phosphate and choline. During the next step choline is oxidized with choline oxidase to yield betaine, whereby H2O2 is generated. H2O2 reacts with Amplex Red Reagent in the presence of peroxidase (Horseradish peroxidase) in an 1:1 stochiometry and yields highly fluorescent resorufin. The generated fluorescence is measured in a reaction-dependent kinetic mode in order to enable subtraction of fluorescence signals of possible other fluorescent compounds that are not part of the reaction from total measured fluorescence.
1.5 μl of a standard solution or of the compounds of the invention are dissolved in 20 mM Hepes pH 7.2 with maximally 7.7% DMSO in individual concentrations. The resulting solution is pre-incubated together with 10 μl (16 ng) of highly purified recombinant autotaxin in a black 384-hole microtiter plate for 30 min at 22° C.
Thereafter, the reaction is started through the addition of 5 μl L-a-lysophosphatidyl-choline (LPC), whereby the final concentration of LPC is 75 μM. The mixture is incubated for 90 min. at 37° C. After the incubation Amplex Red Reagent, peroxidase (Horseradish peroxidase) and choline oxidase are added. The fluorescence is immediately measured at a wavelength of 612 nm with an excitation wavelength of 485 nm in a “Tecan Ultra multimode” fluorescence reader. The activity of autotaxin is indirectly calculated via the amount of detected generated H2O2.
For IC50 analysis, ten serial 1:3 dilutions starting at 30 μM for each compound were run in duplicates.
IC50 values were calculated on normalized data. For normalization, control wells were added to each assay plate and the signal of uninhibited control wells was set to 100%, whereas the signal inhibited by 500 μM C14 LPA, (Avanti Polar Lipids, Cat#857120P) was set to 0%. Curves were fitted and IC50 values calculated by the following model using proprietory analysis software: Y=Bottom+(100−Bottom)/(1+10^((Log IC50−X)*HillSlope))
Where X is the logarithm of concentration. Y is the response;
Y starts at Bottom and goes to Top with a sigmoid shape.
Protein: Recombinant autotaxin (baculoviral Hi5 expression)
Substrate: L-a-lysophosphatidyl choline (chicken egg); Avanti Polar Lipids #830071P
Standard: C14 LPA, Avanti Polar Lipids, Cat#857120P
Detection Reagent Amplex Red Reagent; Invitrogen #A12222; dissolved in 1.923 ml of DMSO peroxidase Type VI-A (horseradish), Sigma #P6782; dissolved in 7.45 ml of test buffer, Choline Oxidase; Sigma #C5896; dissolved in 2.47 ml test buffer
Detection Reagent Mix: 1:100 dilution of Amplex Red Regent in test buffer
Test buffer: 200 mM Tris-HCl, Merck, Cat #1.08219, pH 7.9; 0.1% BSA, lipid free, Roche Cat#775835

| % CTRL (1E−05) [%] | Compound |
| --- | --- |
| 52 | O=C(Nc1ccc(Cl)cc1)Nc1sc2c(c1C(=O)N1CCCC1)CCN(C(=O)c1ccc3[nH]nnc3c1)C2 [Compound 27, 1-[6-(1H-Benzotriazole-5-carbonyl)-3-(pyrrolidine-1-carbonyl)-4,5,6,7-tetrahydro-thieno[2,3-c]pyridin-2-yl]-3-(4-chloro-phenyl)-urea] |
| 93 | O=C(Nc1ccc(C(F)(F)F)cc1)Nc1nc2ccc(C(=O)Nc3ccc4[nH]c(=O)oc4c3)cc2s1 [Compound 30, 2-[3-(4-Trifluoromethyl-phenyl)-ureido]-benzothiazole-6-carboxylic acid (2-oxo-2,3-dihydro-benzooxazol-6-yl)-amide] |
| 94 | O=C(Nc1ccc(Cl)cc1)Nc1nc2ccc(C(=O)Nc3ccc4[nH]c(=O)oc4c3)cc2s1 [Compound 31, 2-[3-(4-Chloro-phenyl)-ureido]-benzothiazole-6-carboxylic acid (2-oxo-2,3-dihydro-benzooxazol-6-yl)-amide] |
| 64 | O=C(Nc1ccc(C(F)(F)F)cc1)Nc1nc2ccc(C(=O)Nc3ccc4[nH]nnc4c3)cc2s1 [Compound 32, 2-[3-(4-Trifluoromethyl-phenyl)-ureido]-benzothiazole-6-carboxylic acid (1H-benzotriazol-5-yl)-amide] |
| 73 | O=C(NC(CO)Cc1ccc(Cl)cc1)c1[nH]nc2c1CCN(C(=O)c1ccc3[nH]nnc3c1)C2 (stereo not drawn) [Compound 40, 6-(1H-Benzotriazole-5-carbonyl)-4,5,6,7-tetrahydro-2H-pyrazolo[3,4-c]pyridine-3-carboxylic acid [2-(4-chloro-phenyl)-1-hydroxymethyl-ethyl]-amide] |
| 66 | COc1ccccc1CNC(=O)c1[nH]nc2c1CCN(C(=O)c1ccc3[nH]nnc3c1)C2 [Compound 41, 6-(1H-Benzotriazole-5-carbonyl)-4,5,6,7-tetrahydro-2H-pyrazolo[3,4-c]pyridine-3-carboxylic acid 2-methoxy-benzylamide] |
| 76 | O=C(NCc1ccc(Cl)cc1F)c1[nH]nc2c1CCN(C(=O)c1ccc3[nH]nnc3c1)C2 [Compound 46, 6-(1H-Benzotriazole-5-carbonyl)-4,5,6,7-tetrahydro-2H-pyrazolo[3,4-c]pyridine-3-carboxylic acid 4-chloro-2-fluoro-benzylamide] |

Same assay, conditions: ten serial 1:3 dilutions starting at 30 μM, duplicates; 75 μM LPC; values given as upper bounds

| IC50 [µM] | Compound |
| --- | --- |
| < 10 | NC(=O)c1c(NC(=O)Cc2ccc(Cl)cc2F)sc2c1CCN(C(=O)CCc1ccccn1)C2 [Compound 24, 2-[2-(4-Chloro-2-fluoro-phenyl)-acetylamino]-6-(3-pyridin-2-yl-propionyl)-4,5,6,7-tetrahydro-thieno[2,3-c]pyridine-3-carboxylic acid amide] |
| < 30 | COC(=O)c1c(NC(=O)Nc2ccc(Cl)cc2)sc2c1CCN(C(=O)c1ccc3[nH]nnc3c1)C2 [Compound 25, 6-(1H-Benzotriazole-5-carbonyl)-2-[3-(4-chloro-phenyl)-ureido]-4,5,6,7-tetrahydro-thieno[2,3-c]pyridine-3-carboxylic acid methyl ester] |
| < 10 | COC(=O)c1c(NC(=O)Nc2ccc(Cl)cc2)sc2c1CCN(C(=O)c1ccc3[nH]c(=O)oc3c1)C2 [Compound 26, 2-[3-(4-Chloro-phenyl)-ureido]-6-(2-oxo-2,3-dihydro-benzooxazole-6-carbonyl)-4,5,6,7-tetrahydro-thieno[2,3-c]pyridine-3-carboxylic acid methyl ester] |
| < 30 | NC(=O)c1c(NC(=O)Nc2ccc(Cl)cc2)[nH]c2cc(C(=O)Nc3ccc4[nH]c(=O)oc4c3)ccc12 [Compound 28, 2-[3-(4-Chloro-phenyl)-ureido]-1H-indole-3,6-dicarboxylic acid 3-amide 6-[(2-oxo-2,3-dihydro-benzooxazol-6-yl)-amide]] |
| < 10 | O=C(Cc1ccc(Cl)cc1F)Nc1nc2ccc(C(=O)Nc3ccc4[nH]c(=O)oc4c3)cc2s1 [Compound 29, 2-[2-(4-Chloro-2-fluoro-phenyl)-acetylamino]-benzothiazole-6-carboxylic acid (2-oxo-2,3-dihydro-benzooxazol-6-yl)-amide] |
| < 10 | O=C(NCc1cc(Cl)cc(Cl)c1)c1[nH]nc2c1CCN(C(=O)c1ccc3[nH]nnc3c1)C2 [Compound 33, 6-(1H-Benzotriazole-5-carbonyl)-4,5,6,7-tetrahydro-2H-pyrazolo[3,4-c]pyridine-3-carboxylic acid 3,5-dichloro-benzylamide] |
| < 10 | O=C(NCc1ccc(Cl)cc1)c1[nH]nc2c1CCN(C(=O)c1ccc3[nH]nnc3c1)C2 [Compound 34, 6-(1H-Benzotriazole-5-carbonyl)-4,5,6,7-tetrahydro-2H-pyrazolo[3,4-c]pyridine-3-carboxylic acid 4-chloro-benzylamide] |
| < 10 | CC(CNC(=O)c1[nH]nc2c1CCN(C(=O)c1ccc3[nH]nnc3c1)C2)c1ccc(Cl)cc1 (stereo not drawn) [Compound 35, 6-(1H-Benzotriazole-5-carbonyl)-4,5,6,7-tetrahydro-2H-pyrazolo[3,4-c]pyridine-3-carboxylic acid [2-(4-chloro-phenyl)-propyl]-amide] |
| < 30 | O=C(NCc1cc(C(F)(F)F)ccc1F)c1[nH]nc2c1CCN(C(=O)c1ccc3[nH]nnc3c1)C2 [Compound 36, 6-(1H-Benzotriazole-5-carbonyl)-4,5,6,7-tetrahydro-2H-pyrazolo[3,4-c]pyridine-3-carboxylic acid 2-fluoro-5-trifluoromethyl-benzylamide] |
| < 10 | O=C(NCCc1ccc(Cl)c(Cl)c1)c1[nH]nc2c1CCN(C(=O)c1ccc3[nH]nnc3c1)C2 [Compound 37, 6-(1H-Benzotriazole-5-carbonyl)-4,5,6,7-tetrahydro-2H-pyrazolo[3,4-c]pyridine-3-carboxylic acid [2-(3,4-dichloro-phenyl)-ethyl]-amide] |
| < 10 | O=C(NCc1cc(Cl)ccc1Cl)c1[nH]nc2c1CCN(C(=O)c1ccc3[nH]nnc3c1)C2 [Compound 38, 6-(1H-Benzotriazole-5-carbonyl)-4,5,6,7-tetrahydro-2H-pyrazolo[3,4-c]pyridine-3-carboxylic acid 2,5-dichloro-benzylamide] |
| < 1 | O=C(NCCc1ccc(Cl)cc1)c1[nH]nc2c1CCN(C(=O)c1ccc3[nH]nnc3c1)C2 [Compound 39, 6-(1H-Benzotriazole-5-carbonyl)-4,5,6,7-tetrahydro-2H-pyrazolo[3,4-c]pyridine-3-carboxylic acid [2-(4-chloro-phenyl)-ethyl]-amide] |
| < 30 | O=C(NCCc1cccc(Cl)c1)c1[nH]nc2c1CCN(C(=O)c1ccc3[nH]nnc3c1)C2 [Compound 42, 6-(1H-Benzotriazole-5-carbonyl)-4,5,6,7-tetrahydro-2H-pyrazolo[3,4-c]pyridine-3-carboxylic acid [2-(3-chloro-phenyl)-ethyl]-amide] |
| < 10 | O=C(NCCc1ccc([N+](=O)[O-])cc1)c1[nH]nc2c1CCN(C(=O)c1ccc3[nH]nnc3c1)C2 [Compound 43, 6-(1H-Benzotriazole-5-carbonyl)-4,5,6,7-tetrahydro-2H-pyrazolo[3,4-c]pyridine-3-carboxylic acid [2-(4-nitro-phenyl)-ethyl]-amide] |
| < 10 | O=C(NCCc1ccc(Br)cc1)c1[nH]nc2c1CCN(C(=O)c1ccc3[nH]nnc3c1)C2 [Compound 44, 6-(1H-Benzotriazole-5-carbonyl)-4,5,6,7-tetrahydro-2H-pyrazolo[3,4-c]pyridine-3-carboxylic acid [2-(4-bromo-phenyl)-ethyl]-amide] |
| < 10 | COc1ccc(Cl)cc1CNC(=O)c1[nH]nc2c1CCN(C(=O)c1ccc3[nH]nnc3c1)C2 [Compound 45, 6-(1H-Benzotriazole-5-carbonyl)-4,5,6,7-tetrahydro-2H-pyrazolo[3,4-c]pyridine-3-carboxylic acid 5-chloro-2-methoxy-benzylamide] |
| < 10 | O=C(NCCc1ccc(F)cc1)c1[nH]nc2c1CCN(C(=O)c1ccc3[nH]nnc3c1)C2 [Compound 47, 6-(1H-Benzotriazole-5-carbonyl)-4,5,6,7-tetrahydro-2H-pyrazolo[3,4-c]pyridine-3-carboxylic acid [2-(4-fluoro-phenyl)-ethyl]-amide] |
